Measurements as given in PMC11822212, “High-throughput screening identifies Aurora kinase B as a critical therapeutic target for Merkel cell carcinoma” (Nature Communications, 2025).
Where a name gives a salt, the structure may show the parent alone. Read-outs that look alike come from different tables or passages of the source.

Legend:
[1] = system: MCC13 cells (VN-MCC); assay: qHTS cell viability (CellTiter-Glo, 72 h; primary and follow-up small molecule screen); assay type: cell-based, human
[2] = system: MCC26 cells (VN-MCC); assay: as above; assay type: cell-based, human
[3] = system: UISO cells (VN-MCC); assay: as above; assay type: cell-based, human
[4] = system: WAGA cells (VP-MCC); assay: as above; assay type: cell-based, human
[5] = system: MKL-1 cells (VP-MCC); assay: as above; assay type: cell-based, human
[6] = system: MKL-2 cells (VP-MCC); assay: as above; assay type: cell-based, human
[7] = system: HACAT cells; assay: qHTS cell viability (CellTiter-Glo, 72 h; primary screen), control cell line; assay type: cell-based, human
[8] = system: HEK293T cells; assay: as above; assay type: cell-based, human
[9] = system: NIH-3T3 cells; assay: as above; assay type: cell-based, mouse
[10] = system: CRL-7250 cells; assay: as above; assay type: cell-based
[11] = system: MCC cell lines (WAGA, MKL-1, MKL-2, MCC13, MCC26, UISO); assay: qHTS cell viability, all six MCC cell lines as a group (mean AUC, MCC.avg); assay type: cell-based, human
[12] = system: VP-MCC cell lines (WAGA, MKL-1, MKL-2); assay: qHTS cell viability, VP-MCC cell lines as a group (mean AUC, VP.MCC.avg); assay type: cell-based, human
[13] = system: VN-MCC cell lines (MCC13, MCC26, UISO); assay: qHTS cell viability, VN-MCC cell lines as a group (mean AUC, VN.MCC.avg); assay type: cell-based, human
[14] = system: control cell lines (HACAT, HEK293T, CRL-7250, NIH-3T3); assay: qHTS cell viability, control cell lines as a group (mean AUC, Control.avg); assay type: cell-based
[15] = system: six MCC cell lines and four control cell lines; assay: qHTS cell viability, all 10 cell lines screened; assay type: cell-based
[16] = NPC library, qHTS dose-response AUC, MCC13
[17] = NPC library, qHTS dose-response AUC, UISO
[18] = NPC library, qHTS dose-response AUC, WAGA
[19] = NPC library, qHTS dose-response AUC, MKL1
[20] = NPC library, qHTS dose-response AUC, MKL2
[21] = NPC library, qHTS dose-response AUC, HACAT control
[22] = NPC library, qHTS dose-response AUC, NIH3T3 control
[23] = NPC library, qHTS dose-response AUC, CRL7250 control
[24] = NPC library, mean AUC of six MCC cell lines
[25] = NPC library, mean AUC of VP-MCC cell lines
[26] = NPC library, therapeutic window: Control avg AUC minus VP-MCC avg AUC
[27] = NPC library, mean AUC of VN-MCC cell lines
[28] = NPC library, therapeutic window: Control avg AUC minus VN-MCC avg AUC
[29] = NPC library, mean AUC of control cell lines
[30] = NPC library, therapeutic window: Control avg AUC minus MCC avg AUC
[31] = NPC library, 8-point DRC, area under dose-response curve
[32] = NPC library, 8-point DRC, control cell line

SMILES: CCN(CC)CCNC(=O)c1ccc(NC(C)=O)cc1 [Acecainide hydrochloride]
- MCC13_AUC [1, 16]: 428.813
- MCC13_AUC ([1]; area under the dose-response curve, MCC13 cells, AUC<450 = reduced viability): 428.813
- MCC26_AUC ([2]; NPC library, qHTS dose-response AUC, MCC26): 385.871
- MCC26_AUC ([2]; area under the dose-response curve, MCC26 cells; AUC<450 = reduced viability): 385.871
- UISO_AUC [3, 17]: 444.571
- UISO_AUC ([3]; area under the dose-response curve, UISO cells, AUC<450 = reduced viability): 444.571
- WAGA_AUC [4, 18]: 423.417
- WAGA_AUC ([4]; area under the dose-response curve, WAGA cells, AUC<450 = reduced viability): 423.417
- MKL1_AUC [5, 19]: 419.008
- MKL1_AUC ([5]; {}): 419.008
- MKL2_AUC [6, 20]: 429.744
- MKL2_AUC ([6]; area under the dose-response curve, MKL-2 cells, AUC<450 = reduced viability): 429.744
- HACAT_AUC [7, 21]: 489.271
- HACAT_AUC ([7]; area under the dose-response curve, HACAT control cells, AUC<450 = reduced viability): 489.271
- HEK293T_AUC ([8]; NPC library, qHTS dose-response AUC, HEK293T control): 458.505
- HEK293T_AUC ([8]; area under the dose-response curve, HEK293T control cells; AUC<450 = reduced viability): 458.505
- NIH3T3_AUC [9, 22]: 480.581
- NIH3T3_AUC ([9]; area under the dose-response curve, NIH3T3 control cells, AUC<450 = reduced viability): 480.581
- CRL7250_AUC [10, 23]: 485.167
- CRL7250_AUC ([10]; area under the dose-response curve, CRL7250 control cells, AUC<450 = reduced viability): 485.167
- MCC_Avg_AUC ([11]; NPC library, mean AUC of all 6 MCC cell lines): 421.904
- MCC_Avg_AUC [11, 24]: 421.904
- Control-VP-MCC ([12]; Control AUC minus VP-MCC AUC): 54.3246
- VP-MCC_Avg_AUC [12, 25]: 424.056
- Control-VP-MCC [12, 26]: 54.3246
- Control-VN-MCC ([13]; Control AUC minus VN-MCC AUC): 58.6292
- VN-MCC_Avg_AUC [13, 27]: 419.752
- Control-VN-MCC [13, 28]: 58.6293
- Control_Avg_AUC [14, 29]: 478.381
- Control-MCC [15, 30]: 56.4769

SMILES: CCOc1cc(N2CCC(O)CC2)ccc1Nc1ncc2c(n1)N(C)c1ccccc1C(=O)N2C [XMD8-92]
- MCC13_AUC [1]: 476.46
- MCC26_AUC [2]: 462.249
- UISO_AUC [3]: 455.545
- WAGA_AUC [4]: 403.248
- MKL1_AUC [5]: 404.412
- MKL2_AUC [6]: 364.829
- HACAT_AUC [7]: 464.723
- HEK293T_AUC [8]: 449.91
- NIH3T3_AUC [9]: 462.049
- CRL7250_AUC [10]: 459.588
- MCC_Avg_AUC [11]: 427.79
- Control-VP-MCC [12]: 68.2382
- VP-MCC_Avg_AUC [12]: 390.829
- Control-VN-MCC [13]: -5.684
- VN-MCC_Avg_AUC [13]: 464.751
- Control_Avg_AUC [14]: 459.068
- Control-MCC [15]: 31.2771

SMILES: O=S1(=O)OC(c2ccc(O)cc2)(c2ccc(O)cc2)c2ccccc21 [Phenol red]
- MCC13_AUC [1, 31]: 422.151
- MCC26_AUC [2, 31]: 404.069
- UISO_AUC [3, 31]: 423.512
- WAGA_AUC [4, 31]: 458.996
- MKL1_AUC [5, 31]: 429.88
- MKL2_AUC [6, 31]: 451.959
- HACAT_AUC [7, 32]: 492.366
- HEK293T_AUC [8, 32]: 472.146
- NIH3T3_AUC [9, 32]: 484.742
- CRL7250_AUC [10, 32]: 462.075
- MCC_Avg_AUC [11, 24]: 431.761
- Control-VP-MCC ([12]; NPC library, Control AUC minus VP-MCC AUC (therapeutic window)): 30.8871
- VP-MCC_Avg_AUC [12, 25]: 446.945
- Control-VN-MCC ([13]; NPC library, Control AUC minus VN-MCC AUC (therapeutic window)): 61.2549
- VN-MCC_Avg_AUC [13, 27]: 416.577
- Control_Avg_AUC [14, 29]: 477.832
- Control-MCC ([15]; NPC library, Control AUC minus MCC AUC (therapeutic window)): 46.071

SMILES: CCCCCCC[N+](CC)(CC)CCCCc1ccc(Cl)cc1.Cc1ccc(S(=O)(=O)[O-])cc1 [Clofilium tosylate]
- MCC13_AUC [1, 16]: 487.681
- Area under the dose-response curve (AUC) MCC13 Replicate 1 ([1]; follow-up screen, MCC13, replicate 1): 426.2
- Area under the dose-response curve (AUC) MCC13 Replicate 2 ([1]; follow-up screen, MCC13, replicate 2): 460.3
- Area under the dose-response curve (AUC) MCC13 Replicate 3 ([1]; follow-up screen, MCC13, replicate 3): 452.0
- MCC26_AUC ([2]; NPC library; qHTS dose-response AUC, MCC26): 466.849
- Area under the dose-response curve (AUC) MCC26 Replicate 1 ([2]; follow-up screen; MCC26; replicate 1): 410.9
- Area under the dose-response curve (AUC) MCC26 Replicate 2 ([2]; follow-up screen; MCC26; replicate 2): 395.3
- Area under the dose-response curve (AUC) MCC26 Replicate 3 ([2]; follow-up screen; MCC26; replicate 3): 393.8
- UISO_AUC [3, 17]: 375.709
- Area under the dose-response curve (AUC) UISO Replicate 1 ([3]; follow-up screen, UISO, replicate 1): 319.6
- Area under the dose-response curve (AUC) UISO Replicate 2 ([3]; follow-up screen, UISO, replicate 2): 366.0
- Area under the dose-response curve (AUC) UISO Replicate 3 ([3]; follow-up screen, UISO, replicate 3): 321.7
- WAGA_AUC [4, 18]: 331.884
- Area under the dose-response curve (AUC) WAGA Replicate 1 ([4]; follow-up screen, WAGA, replicate 1): 348.8
- Area under the dose-response curve (AUC) WAGA Replicate 2 ([4]; follow-up screen, WAGA, replicate 2): 411.4
- Area under the dose-response curve (AUC) WAGA Replicate 3 ([4]; follow-up screen, WAGA, replicate 3): 326.5
- MKL1_AUC [5, 19]: 311.939
- Area under the dose-response curve (AUC) MKL-1 Replicate 1 ([5]; follow-up screen, MKL-1, replicate 1): 329.2
- Area under the dose-response curve (AUC) MKL-1 Replicate 2 ([5]; follow-up screen, MKL-1, replicate 2): 327.6
- Area under the dose-response curve (AUC) MKL-1 Replicate 3 ([5]; follow-up screen, MKL-1, replicate 3): 322.0
- MKL2_AUC [6, 20]: 283.262
- Area under the dose-response curve (AUC) MKL-2 Replicate 1 ([6]; follow-up screen, MKL-2, replicate 1): 313.7
- Area under the dose-response curve (AUC) MKL-2 Replicate 2 ([6]; follow-up screen, MKL-2, replicate 2): 309.2
- Area under the dose-response curve (AUC) MKL-2 Replicate 3 ([6]; follow-up screen, MKL-2, replicate 3): 301.8
- HACAT_AUC [7, 21]: 444.696
- HEK293T_AUC ([8]; NPC library; qHTS dose-response AUC, HEK293T control): 375.013
- NIH3T3_AUC [9, 22]: 452.7
- CRL7250_AUC [10, 23]: 402.177
- MCC_Avg_AUC [11, 24]: 376.221
- VP-MCC_Avg_AUC [12, 25]: 309.028
- Control-VP-MCC [12, 26]: 109.618
- VN-MCC_Avg_AUC [13, 27]: 443.413
- Control-VN-MCC [13, 28]: -24.7666
- Control_Avg_AUC [14, 29]: 418.646
- Control-MCC [15, 30]: 42.4257
